The results in this text go back to patent US5045566A, “Novel imidate insecticides” (ICI Americas Inc., priority 1989, dated 1991).

Holding throughout (assay type): in vivo
In experiment [1] the test system is Tobacco Budworm [Heliothis virescens (Fabricius)] eggs. The experiment can be described thus: Tobacco budworm eggs (TBW-E). The settings on record: percent in solution; 2-day old eggs. The procedure:
(§1) The compounds in Tables 1 and 2 above were tested for insecticidal activity using the following testing procedures. LC50 values, based on the results of these tests and calculated according to dosage-mortality curves, are expressed in Table 3.
Tobacco Budworm [Heliothis virescens (Fabricius)]:
(b). Eggs: Paper towel patches of 2-day old eggs of the tobacco budworm were dipped in acetone solutions of the test compound and placed in petri dishes containing a portion of larval rearing medium. Treated eggs were maintained at 78° F. and mortality was recorded after all control eggs had hatched and the young larvae were feeding on the media. Test concentrations ranged from 0.1% downward. The LC-50 value is expressed below in Table 3 under the heading "TBW-E" in terms of percent of the test compound in the solution.

In experiment [2] the test system is Housefly [Musca domestica]. The experiment can be described thus: Housefly contact mortality in dishes (HF), 48 hours. Particulars: μg of test compound per 25 female flies. The protocol: as §1
Housefly [Musca domestica]:
Test compounds were diluted in acetone and aliquots pipetted onto the bottom of aluminum dishes. To ensure even spreading of the chemical on the bottom of the dishes, 1 ml of acetone containing 0.01% peanut oil was also added to each dish. After all solvents had evaporated, the dishes were placed in circular cardboard cages containing 25 female houseflies, 1-2 days old. The cages were covered on the bottom with cellophane and on the top with tulle netting, and each contained a sugar-water saturated cotton plug for maintenance of the flies. Mortality was recorded after 48 hours. Test levels ranged from 100 μg/25 female houseflies downward. The LC-50 value is expressed below in Table 3 under the heading "HF", in terms of μg of the test compound per 25 female flies.

For experiment [3], the system named is Cabbage Looper [Trichoplusia ni (Hubner)]. The experiment in a line: Cabbage looper leaf dip (CL), 3-5 days. The settings on record: percent in solution, second-instar larvae. The procedure:
as §1
Cabbage Looper [Trichoplusia ni (Hubner)]:
Test compounds were diluted in a 50-50 acetone-water solution. Cotyledons of hyzini squash (Calabacita abobrinha), approximately 1×1.5 inches, were immersed in the test solutions for 2-3 seconds and placed on a wire screen to dry. The dried leaves were placed in petri dishes containing a moistened piece of filter paper and infested with 5 second-instar cabbage looper larvae. The dishes were placed in a high humidity chamber. Mortality of the larvae was recorded 3-5 days later. Test concentrations ranged from 0.1% downward. The LC-50 value is expressed below in Table 3 under the heading "CL" in terms of percent of the test compound in solution.

Regarding `CCC(C)C(=Nc1ccc(Cl)cc1)OCc1cccc(Oc2ccccc2)c1` (stereo not drawn) [Compound 26], the “LC50 TBW E (eggs)” value in experiment [1] is given as > 0.1%. Further, the “LC50 HF” value in experiment [2] was > 100 µg. The “LC50 CL” value in experiment [3] turned out to be 0.007%.

Turning to `CC(Cl)C(=Nc1ccc(Cl)c(Cl)c1)OCc1cccc(Oc2ccccc2)c1` (stereo not drawn) [Compound 27], the “LC50 TBW E (eggs)” value in experiment [1] is > 0.1%. Moreover, in experiment [2], the “LC50 HF” value is > 100 µg. Besides, the “LC50 CL” value in experiment [3] came to 0.04%.

Consider `CCC(=Nc1cccc(Cl)c1Cl)OCc1cccc(Oc2ccccc2)c1` [Compound 28], for which, in experiment [1], the “LC50 TBW E (eggs)” value is recorded as > 0.1%. For the same compound, the “LC50 HF” value in experiment [2] is > 100 µg. Also, in experiment [3], the “LC50 CL” value is recorded as 0.009%.

With `CCC(=Nc1ccc(Cl)c(Cl)c1)OCc1cccc(Oc2ccccc2)c1` [Compound 36], the “LC50 TBW E (eggs)” value in experiment [1] is > 0.1%. Moreover, the “LC50 HF” value in experiment [2] turned out to be 20 µg. Also, in experiment [3], the “LC50 CL” value was determined as 0.024%.

Consider `CCCC(=Nc1ccc(Cl)c(Cl)c1)OCc1cccc(Oc2ccccc2)c1` [Compound 38], for which the “LC50 TBW E (eggs)” value in experiment [1] is reported as 0.05%. Moreover, in experiment [2], the “LC50 HF” value turned out to be 33 µg. For the same compound, the “LC50 CL” value in experiment [3] was determined as 0.006%.

For the compound `CCC(C)C(=Nc1ccc(Cl)c(Cl)c1)OCc1cccc(Oc2ccccc2)c1` (stereo not drawn) [Compound 39], the “LC50 TBW E (eggs)” value in experiment [1] was > 0.1%. For the same compound, the “LC50 HF” value in experiment [2] is > 100 µg. Besides, the “LC50 CL” value in experiment [3] was found to be 0.0023%.

Turning to `CC(C)C(=Nc1ccc(Cl)c(Cl)c1)OCc1cccc(Oc2cccc(F)c2)c1` [Compound 40], the “LC50 TBW E (eggs)” value in experiment [1] turned out to be 0.08%. In experiment [2], the “LC50 HF” value was 36 µg. For the same compound, the “LC50 CL” value in experiment [3] came to 0.0025%.

`CCC(=Nc1ccc(F)cc1F)OCc1cccc(Oc2ccccc2)c1` [Compound 59]: in experiment [1], the “LC50 TBW E (eggs)” value was > 0.1%. Moreover, the “LC50 HF” value in experiment [2] was 25 µg. Besides, the “LC50 CL” value in experiment [3] was found to be 0.02%.

Consider `COc1ccc(N=C(OCc2cccc(Oc3ccc(F)cc3)c2)C(C)C)cc1Cl` [Compound 110], for which the “LC50 TBW E (eggs)” value in experiment [1] was found to be 0.04%. Also, the “LC50 HF” value in experiment [2] was 26 µg. In addition, the “LC50 CL” value in experiment [3] was 0.007%.

For `CC(C)C(=Nc1cccc(Oc2ccccn2)c1)OCc1cccc(Oc2ccccc2)c1` [Compound 114], the “LC50 HF” value in experiment [2] was determined as 92 µg. Further, the “LC50 CL” value in experiment [3] was < 0.1%.

As to `CCC(=Nc1ccc(F)c(Cl)c1)OCc1cccc(Oc2ccc(F)cc2)c1` [Compound 115], the “LC50 TBW E (eggs)” value in experiment [1] is listed as 0.075%. Also, in experiment [2], the “LC50 HF” value was 10 µg. The “LC50 CL” value in experiment [3] is reported as 0.0012%.

For the compound `CC(Br)C(=Nc1ccc(F)c(Cl)c1)OCc1cccc(Oc2ccccc2)c1` (stereo not drawn) [Compound 118], the “LC50 TBW E (eggs)” value in experiment [1] is recorded as > 0.1%. The “LC50 HF” value in experiment [2] was 18 µg. For the same compound, in experiment [3], the “LC50 CL” value stood at 0.0013%.

Turning to `CCCCC(=Nc1ccc(F)c(Cl)c1)OCc1cccc(Oc2ccccc2)c1` [Compound 121], the “LC50 TBW E (eggs)” value in experiment [1] is reported as > 0.1%. Moreover, the “LC50 HF” value in experiment [2] is > 100 µg. In addition, the “LC50 CL” value in experiment [3] turned out to be 0.1%.

With `CCCC(=Nc1ccc(F)c(Cl)c1)OCc1cccc(Oc2ccccc2)c1` [Compound 123], in experiment [1], the “LC50 TBW E (eggs)” value is reported as > 0.1%. The “LC50 HF” value in experiment [2] was > 100 µg. In addition, in experiment [3], the “LC50 CL” value came to 0.012%.

Consider `CC(C)C(=Nc1cccc(C#N)c1)OCc1cccc(Oc2ccccc2)c1` [Compound 126], for which the “LC50 TBW E (eggs)” value in experiment [1] is > 0.1%. Moreover, the “LC50 HF” value in experiment [2] was > 100 µg. Moreover, the “LC50 CL” value in experiment [3] worked out at 0.08%.

In the case of `CC(=O)c1cccc(N=C(OCc2cccc(Oc3ccccc3)c2)C(C)C)c1` [Compound 170], in experiment [1], the “LC50 TBW E (eggs)” value is > 0.1%. Also, the “LC50 HF” value in experiment [2] amounted to 37 µg. Also, the “LC50 CL” value in experiment [3] is 0.1%.

`CCOc1cccc(N=C(OCc2cccc(Oc3ccccc3)c2)C(C)C)c1` [Compound 171]: the “LC50 TBW E (eggs)” value in experiment [1] is on record as > 0.1%. In experiment [2], the “LC50 HF” value came out at 80 µg. The “LC50 CL” value in experiment [3] was found to be 0.01%.

In the case of `CC(C)C(=Nc1ccc(F)c(Cl)c1)OC(F)c1cccc(Oc2ccc(F)cc2)c1` (stereo not drawn) [Compound 502], the “LC50 HF” value in experiment [2] was 80 µg.
